Laboratory results taken from paper PMC11725145 (Acta Pharmaceutica Sinica. B, 2024).

Experiments:
[1] = Metabolic stability in rat liver microsomes; type: in vitro ADME
PDE1 Y228A = PDE1 Y228A (Homo sapiens, UniProt Q14123, Y227A); experiment: Inhibition of PDE1 mutant by 10a; type: biochemical
PDE1 F392A = PDE1 F392A (Homo sapiens, UniProt Q14123, F398A); experiment: Inhibition of PDE1 mutant by 10a; type: biochemical
PDE1 Q421A = PDE1 Q421A (Homo sapiens, UniProt Q14123, Q427A); experiment: Inhibition of PDE1 mutant by 10a; type: biochemical; settings: Q421A vs wild type
Sequence of PDE1 Q421A (Q14123 147-531 Q427A): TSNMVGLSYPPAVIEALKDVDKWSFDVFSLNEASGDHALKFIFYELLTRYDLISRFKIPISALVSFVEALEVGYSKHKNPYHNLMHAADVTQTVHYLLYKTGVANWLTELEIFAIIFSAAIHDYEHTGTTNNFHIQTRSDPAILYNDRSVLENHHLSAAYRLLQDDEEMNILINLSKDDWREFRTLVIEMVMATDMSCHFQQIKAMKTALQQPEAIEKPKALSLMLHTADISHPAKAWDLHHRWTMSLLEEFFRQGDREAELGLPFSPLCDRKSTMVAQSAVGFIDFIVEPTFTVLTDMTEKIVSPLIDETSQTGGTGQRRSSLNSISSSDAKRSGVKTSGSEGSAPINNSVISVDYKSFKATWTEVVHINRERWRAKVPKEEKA

Sequence of PDE1 F392A (Q14123 147-531 F398A): as the sequence (Q14123 147-531 Q427A) above, with F252A, A281Q counted along it
Sequence of PDE1 Y228A (Q14123 147-531 Y227A): as the sequence (Q14123 147-531 Q427A) above, with Y81A, A281Q counted along it

## O=C1O/C(=C\c2cc(F)ccc2OCCN2CCOCC2)c2cc(Cc3cccc(F)c3)[nH]c(=O)c21 [compound 11b]
[1]
  half-life: 29.8 min

## Cc1cc2c(c(=O)[nH]1)C(=O)O/C2=C\c1cc(F)ccc1OCCN1CCOCC1 [compound 11a]
[1]
  half-life: 8 min

## Cc1cc2c(c(=O)[nH]1)C(=O)O/C2=C\c1cc(F)ccc1OC(C)C [compound 10a]
PDE1 Y228A
  IC50: 43 nM
PDE1 Y228A; Y228A vs wild type
  loss of binding affinity: ~3 fold
PDE1 F392A
  IC50: 231 nM
PDE1 F392A; F392A vs wild type
  loss of binding affinity: 14 fold
PDE1 Q421A
  loss of binding affinity: 8 fold

## O=C1O/C(=C\c2cc(F)ccc2OCCN2CC[C@@H](F)C2)c2cc(Cc3cccc(F)c3)[nH]c(=O)c21 [11c]
[1]
  half-life: 13.5 min
